# From US6914045B2, “Glycopeptide antibiotics” (Wyeth Holdings Corporation, priority 2001, dated 2005)
# How the values were obtained:
# Assay in all cases: in vitro antibacterial evaluation, MIC by broth dilution
# Assay type in all cases: cell-based
# Staphylococcus sp. = conditions: broth dilution, 18 hours at 35° C.
# How it was run: (§1)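 MIC = lowest antibiotic concentration preventing visible growth; inoculum 5×10^5 CFU/mL; drug range 64-0.06 μg/mL; Muller-Hinton II […]; NCCLS M7-A2 guidance.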
# Streptococcus sp. = conditions: broth dilution, 18 hours at 35° C.
# How it was run: as §1
# Escherichia coli = conditions: 18 hours at 35° C.
# How it was run: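 Read-out: the lowest concentration at which the test strain fails to grow. Serial dilutions (64-0.06 μg/mL) in Muller-Hinton II […], 5×10^5 CFU/mL inoculum, NCCLS M7-A2 procedure.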
# Enterococcus sp. = conditions: broth dilution, 18 hours at 35° C.
# How it was run: as §1
smiles,measurement,setting,value
"CC(C)CC(=O)OC1C(OC2C(CO)OC(Oc3ccc(CC4NC(=O)C(C(C)c5cccs5)NC(=O)CNC(=O)C(CO)NC(=O)C(C(O)C5CNC(=N)N5C5OC(CO)C(O)C(O)C5O)NC(=O)C(C(O)C5CNC(=N)N5)NC4=O)cc3)C(O)C2O)OC(CO)C(O)C1O (stereo not drawn) [Example 265a, Cyclo[3-(2-thienyl)-2-aminobutanoyl-O-[4-O-[2-O-(3-methylbutanoyl)hexopyranosyl]hexopyranosyl]tyrosyl-3-(2-iminoimidazolidin-4-yl)seryl-3-(3-hexopyranosyl-2-iminoimidazolidin-4-yl)serylserylglycyl]]",MIC Coagulase Negative Staphylococcus (GC 4547),Staphylococcus sp.,8 µg/mL
same,MIC Coagulase Negative Staphylococcus (GC 4548),Staphylococcus sp.,8 µg/mL
same,MIC Coagulase Negative Staphylococcus (GC 4549),Staphylococcus sp.,4 µg/mL
same,MIC Coagulase Negative Staphylococcus (GC 4551),Staphylococcus sp.,8 µg/mL
same,MIC Staphylococcus aureus (ATCC 29213),Staphylococcus sp.,16 µg/mL
same,MIC Staphylococcus aureus (GC 1131),Staphylococcus sp.,32 µg/mL
same,MIC Staphylococcus aureus (GC 4541),Staphylococcus sp.,16 µg/mL
same,MIC Staphylococcus aureus (GC 4542),Staphylococcus sp.,16 µg/mL
same,MIC Staphylococcus aureus (GC 4544),Staphylococcus sp.,8 µg/mL
same,MIC Staphylococcus aureus (GC 4545),Staphylococcus sp.,16 µg/mL
same,MIC Staphylococcus aureus-SMITH (GC 4543),Staphylococcus sp.,8 µg/mL
same,MIC Staphylococcus haemolyticus (GC 4546),Staphylococcus sp.,8 µg/mL
same,MIC Staphylococcus aureus (ATCC 29213),Staphylococcus sp.; strain ATCC 29213,16 µg/mL
same,MIC Staphylococcus aureus (GC 1131),Staphylococcus sp.; strain GC 1131,32 µg/mL
same,MIC Staphylococcus aureus (GC 4541),Staphylococcus sp.; strain GC 4541,16 µg/mL
same,MIC Staphylococcus aureus (GC 4542),Staphylococcus sp.; strain GC 4542,16 µg/mL
same,MIC Staphylococcus aureus (GC 4544),Staphylococcus sp.; strain GC 4544,8 µg/mL
same,MIC Staphylococcus aureus (GC 4545),Staphylococcus sp.; strain GC 4545,16 µg/mL
same,MIC Staphylococcus haemolyticus (GC 4546),Staphylococcus sp.; strain GC 4546,8 µg/mL
same,MIC Coagulase Negative Staphylococcus (GC 4547),Staphylococcus sp.; strain GC 4547,8 µg/mL
same,MIC Coagulase Negative Staphylococcus (GC 4548),Staphylococcus sp.; strain GC 4548,8 µg/mL
same,MIC Coagulase Negative Staphylococcus (GC 4549),Staphylococcus sp.; strain GC 4549,4 µg/mL
same,MIC Coagulase Negative Staphylococcus (GC 4551),Staphylococcus sp.; strain GC 4551,8 µg/mL
same,MIC Staphylococcus aureus-SMITH (GC 4543),Staphylococcus sp.; strain SMITH GC 4543,8 µg/mL
same,MIC Streptococcus agalactiae (GC 4564),Streptococcus sp.; strain GC 4564,4 µg/mL
same,MIC Streptococcus pyogenes (ID-3187),Streptococcus sp.; strain ID-3187,4 µg/mL
same,MIC Escherichia coli (ATCC 25922),Escherichia coli; Escherichia coli (ATCC 25922),>64 µg/mL
same,MIC Escherichia coli (GC 4559),Escherichia coli; Escherichia coli (GC 4559),>64 µg/mL
same,MIC Escherichia coli (GC 4560),Escherichia coli; Escherichia coli (GC 4560),4 µg/mL
same,MIC Enterococcus avium (GC 4558),Enterococcus sp.; Enterococcus avium (GC 4558),64 µg/mL
same,MIC Enterococcus faecalis (ATCC 29212),Enterococcus sp.; Enterococcus faecalis (ATCC 29212),64 µg/mL
same,MIC Enterococcus faecalis (GC 4553),Enterococcus sp.; Enterococcus faecalis (GC 4553),>64 µg/mL
same,MIC Enterococcus faecalis (GC 4554),Enterococcus sp.; Enterococcus faecalis (GC 4554),>64 µg/mL
same,MIC Enterococcus faecium (GC 2243),Enterococcus sp.; Enterococcus faecium (GC 2243),>64 µg/mL
same,MIC Enterococcus faecium (GC 4556),Enterococcus sp.; Enterococcus faecium (GC 4556),64 µg/mL
same,MIC Enterococcus faecium (GC 4557),Enterococcus sp.; Enterococcus faecium (GC 4557),8 µg/mL
same,MIC Enterococcus faecalis (ATCC 29212),Enterococcus sp.; strain ATCC 29212,64 µg/mL
same,MIC Enterococcus faecalis (GC 2242),Enterococcus sp.; strain GC 2242,64 µg/mL
same,MIC Enterococcus faecium (GC 2243),Enterococcus sp.; strain GC 2243,>64 µg/mL
same,MIC Enterococcus faecalis (GC 4552),Enterococcus sp.; strain GC 4552,>64 µg/mL
same,MIC Enterococcus faecalis (GC 4553),Enterococcus sp.; strain GC 4553,>64 µg/mL
same,MIC Enterococcus faecalis (GC 4554),Enterococcus sp.; strain GC 4554,>64 µg/mL
same,MIC Enterococcus faecium (GC 4556),Enterococcus sp.; strain GC 4556,64 µg/mL
same,MIC Enterococcus faecium (GC 4557),Enterococcus sp.; strain GC 4557,8 µg/mL
same,MIC Enterococcus avium (GC 4558),Enterococcus sp.; strain GC 4558,64 µg/mL
